Measured values reported in patent US20220380375A1, “SUBSTITUTED AROMATIC FUSED RING DERIVATIVE AND COMPOSITION COMPRISING SAME, AND USE THEREOF” (Shenzhen TargetRx, Inc., priority 2019, published 2022).

Experiments:
Type in all cases: cell-based
[1] = test system: Ba/F3 KIF5B-RET^G810R cells; assay: Cytotoxicity assay (CellTiter-Glo), Ba/F3 KIF5B-RET G810R; conditions: ratio of Ba/F3 parental IC50 to Ba/F3 KIF5B-RET^G810R IC50
Experimental: (§1) Inhibitory effects of example compounds on the activity of Ba/F3 parental generation, Ba/F3 KIF5B-RET, Ba/F3 KIF5B-RET^V804M, Ba/F3 KIF5B-RET^V804L, Ba/F3 KIF5B-RET^G810R, Ba/F3 FLT3-ITD, Ba/F3 FLT3-ITD^D835Y, Ba/F3 FLT3-ITD^F691L cells were determined.
(§2) Materials and reagents: fetal bovine serum FBS (GIBCO, Cat #10099141), CellTiter-Glo® Luminescent Cell Viability Assay kit (Promega, Cat #G7572), 96-well black-wall clear flat-bottom plate (Corning®, Cat #3603).
(§3) 1. Cells in the logarithmic growth phase were harvested and counted with a […]. Cell viability was detected by a trypan blue exclusion method, ensuring that cell viability was 90% or more; 2. Cell concentration was adjusted to about 3000 cells/well; 90 μl of cell suspension was added to each well of the 96-well plate; 3. The cells in the 96-well plate were incubated overnight under the condition of 37° C., 5% CO2, and 95% humidity.
(§4) 1. A series of compound solutions were formulated by 3.16-fold serial dilution starting from a concentration of 10 μM, resulting in 9 concentrations. 10 μL of the compound solutions were added in each well of the 96-well plate seeded with cells in triplicate for each compound concentration; 2. The cells in the 96-well plate added with compounds were further incubated under the condition of 37° C., 5% CO2, and 95% humidity for 72 hrs, and then CTG analysis was carried out.
(§5) 1. CTG reagent was thawed, and the cell plate was equilibrated at room temperature for 30 minutes; 2. An equal volume […] of CTG solution was added to each well; 3. The cell plate was shaken on an orbital shaker for 5 minutes to lyse the cells; 4. The cell plate was placed at RT for 20 minutes to stabilize the luminescence signal; 5. Luminescence value was read.
(§6) Data were Analyzed by GraphPad Prism 5.0 Software, and Fitted by Nonlinear S-Curve Regression to obtain a dose-response curve, from which IC50 values were calculated.
(§7) Cell survival rate (%)=(luminescence value of drug to be tested−luminescence value of culture medium control)/(luminescence value of cell control−luminescence value of culture medium control)×100%.

[2] = biological target: T1, Ba/F3 KIF5B-RET^G810R cells (Homo sapiens, UniProt P07949, G810R, cells depend on it); assay: as above; conditions: CellTiter-Glo, 72 hrs; read-out: Ba/F3 KIF5B-RET^G810R IC50
T1 construct: Ba/F3 KIF5B-RET^G810R IC50 (nM); other: CellTiter-Glo, 72 hrs; fused on or other part: P33176 (Kinesin-1 heavy chain)
T1 sequence (P07949 whole entry G810R, the tested form may be a part): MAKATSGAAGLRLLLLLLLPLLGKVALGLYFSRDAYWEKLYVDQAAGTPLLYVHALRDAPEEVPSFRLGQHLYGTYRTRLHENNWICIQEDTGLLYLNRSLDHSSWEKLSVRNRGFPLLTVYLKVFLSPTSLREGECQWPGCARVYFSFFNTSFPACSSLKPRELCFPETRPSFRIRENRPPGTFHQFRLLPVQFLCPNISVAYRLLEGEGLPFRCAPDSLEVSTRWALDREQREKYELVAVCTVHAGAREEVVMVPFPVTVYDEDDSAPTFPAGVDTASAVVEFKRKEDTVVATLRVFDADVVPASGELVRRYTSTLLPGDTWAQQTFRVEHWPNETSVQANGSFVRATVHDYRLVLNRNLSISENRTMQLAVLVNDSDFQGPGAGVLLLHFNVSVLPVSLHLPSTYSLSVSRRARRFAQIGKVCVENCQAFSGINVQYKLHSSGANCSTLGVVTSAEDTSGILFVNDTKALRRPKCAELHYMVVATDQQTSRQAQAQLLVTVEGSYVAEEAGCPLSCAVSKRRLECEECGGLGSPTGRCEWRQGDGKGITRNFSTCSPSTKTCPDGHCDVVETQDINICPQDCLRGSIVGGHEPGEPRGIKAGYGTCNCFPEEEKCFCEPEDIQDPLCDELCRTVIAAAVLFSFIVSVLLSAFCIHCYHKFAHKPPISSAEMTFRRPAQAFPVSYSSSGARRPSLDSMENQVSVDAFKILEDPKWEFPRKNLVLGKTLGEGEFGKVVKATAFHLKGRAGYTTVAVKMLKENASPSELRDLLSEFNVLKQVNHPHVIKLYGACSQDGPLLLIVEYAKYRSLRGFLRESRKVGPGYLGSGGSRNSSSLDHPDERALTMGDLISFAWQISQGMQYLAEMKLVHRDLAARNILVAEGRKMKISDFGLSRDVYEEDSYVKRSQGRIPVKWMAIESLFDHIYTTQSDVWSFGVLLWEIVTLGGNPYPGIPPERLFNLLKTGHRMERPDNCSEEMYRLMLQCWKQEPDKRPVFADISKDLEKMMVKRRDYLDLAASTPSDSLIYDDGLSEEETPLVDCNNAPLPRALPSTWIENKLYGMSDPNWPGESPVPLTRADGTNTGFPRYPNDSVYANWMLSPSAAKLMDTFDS
Experimental: as §1, §2, §3, §4, §5, §6, §7

[3] = test system: Ba/F3 FLT3-ITD^F691L cells; assay: Cytotoxicity assay (CellTiter-Glo), Ba/F3 FLT3-ITD F691L; conditions: ratio of Ba/F3 parental IC50 to Ba/F3 FLT3-ITD^F691L IC50
Experimental: as §1, §2, §3, §4, §5, §6, §7

[4] = test system: Ba/F3 FLT3-ITD^D835Y cells; assay: Cytotoxicity assay (CellTiter-Glo), Ba/F3 FLT3-ITD D835Y; conditions: ratio of Ba/F3 parental IC50 to Ba/F3 FLT3-ITD^D835Y IC50
Experimental: as §1, §2, §3, §4, §5, §6, §7

[5] = biological target: T2, Ba/F3 FLT3-ITD^D835Y cells (Homo sapiens, UniProt P36888, D835Y, cells depend on it, form not given); assay: as above; conditions: CellTiter-Glo, 72 hrs; read-out: Ba/F3 FLT3-ITD^D835Y IC50
T2 construct: Ba/F3 FLT3-ITD^D835Y IC50 (nM); other: CellTiter-Glo, 72 hrs
T2 sequence (P36888 1-993 D835Y): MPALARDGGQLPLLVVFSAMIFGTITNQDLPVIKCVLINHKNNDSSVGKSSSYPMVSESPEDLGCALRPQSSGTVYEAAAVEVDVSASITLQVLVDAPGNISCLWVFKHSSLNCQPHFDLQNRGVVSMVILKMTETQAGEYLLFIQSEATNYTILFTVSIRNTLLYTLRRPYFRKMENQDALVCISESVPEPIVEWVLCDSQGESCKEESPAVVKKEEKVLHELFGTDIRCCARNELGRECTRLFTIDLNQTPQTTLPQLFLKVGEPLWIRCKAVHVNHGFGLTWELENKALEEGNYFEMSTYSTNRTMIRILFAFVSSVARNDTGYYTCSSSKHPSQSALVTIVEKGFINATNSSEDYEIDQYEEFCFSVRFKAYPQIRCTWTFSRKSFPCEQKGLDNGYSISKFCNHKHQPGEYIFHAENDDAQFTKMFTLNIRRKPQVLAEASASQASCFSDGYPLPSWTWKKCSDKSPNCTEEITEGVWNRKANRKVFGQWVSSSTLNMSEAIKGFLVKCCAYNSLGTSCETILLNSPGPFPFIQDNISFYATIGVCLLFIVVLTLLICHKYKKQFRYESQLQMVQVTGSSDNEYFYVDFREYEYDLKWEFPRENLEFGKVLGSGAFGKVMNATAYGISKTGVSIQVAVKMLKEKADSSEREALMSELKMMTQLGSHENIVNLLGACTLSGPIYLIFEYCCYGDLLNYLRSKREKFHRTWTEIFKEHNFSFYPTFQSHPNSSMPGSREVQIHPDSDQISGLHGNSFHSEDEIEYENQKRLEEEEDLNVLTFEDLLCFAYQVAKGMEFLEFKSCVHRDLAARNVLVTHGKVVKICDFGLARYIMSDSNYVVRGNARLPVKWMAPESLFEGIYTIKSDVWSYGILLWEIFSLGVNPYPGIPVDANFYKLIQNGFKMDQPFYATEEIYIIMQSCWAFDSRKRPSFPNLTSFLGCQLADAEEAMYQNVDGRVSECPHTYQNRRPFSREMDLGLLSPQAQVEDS
Experimental: as §1, §2, §3, §4, §5, §6, §7

Ba/F3 KIF5B-RET cells [6] = assay: Cytotoxicity assay (CellTiter-Glo), Ba/F3 KIF5B-RET; conditions: ratio of Ba/F3 parental IC50 to Ba/F3 KIF5B-RET IC50
Experimental: as §1, §2, §3, §4, §5, §6, §7

Ba/F3 KIF5B-RET cells [7] = biological target: T3, Ba/F3 KIF5B-RET cells (Homo sapiens, UniProt P07949); assay: as above; conditions: CellTiter-Glo, 72 hrs; read-out: Ba/F3 KIF5B-RET IC50
T3 construct: Ba/F3 KIF5B-RET IC50 (nM); other: CellTiter-Glo, 72 hrs; fused on or other part: P33176 (Kinesin-1 heavy chain)
T3 sequence (P07949 whole entry, change not shown, the tested form may be a part): as the sequence (P07949 whole entry G810R, the tested form may be a part) above, with R810G counted along it
Experimental: as §1, §2, §3, §4, §5, §6, §7

[8] = test system: Ba/F3 parental generation cells; assay: Cytotoxicity assay (CellTiter-Glo), Ba/F3 parental; conditions: Mus musculus, BaF3, Table 2, 72 hrs
Experimental: as §1, §2, §3, §4, §5, §6, §7

| SMILES | Ba/F3 KIF5B-RET^G810R Selectivity on parental generation [1] | GI50 [2] [nM] | Ba/F3 FLT3-ITD^F691L Selectivity on parental generation [3] | Ba/F3 FLT3-ITD^D835Y Selectivity on parental generation [4] | GI50 [5] [nM] | Ba/F3 KIF5B-RET Selectivity on parental generation (Ba/F3 KIF5B-RET cells [6]) | GI50 (Ba/F3 KIF5B-RET cells [7]) [nM] | IC50 [8] [nM] |
| --- | --- | --- | --- | --- | --- | --- | --- | --- |
| CC(C)n1nc(-c2ccc(CC(=O)Nc3cc(C(C)(C)C(F)(F)F)on3)cn2)c2c(N)ncnc21 [Compound T-7, 2-(6-(4-amino-1-isopropyl-1H-pyrazolo[3,4-d]pyrimidin-3-yl)pyridin-3-yl)-N-(5-(1,1,1-trifluoro-2-methylprop-2-yl)isoxazol-3-yl)acetamide] | 47.4 | 6.92 | 101.9 | 32.63 | 5.57 | 71.2 | 4.61 | 328 |
| CC(C)n1nc(-c2ccc(CC(=O)Nc3cc(C(C)(C)C(F)(F)F)no3)cn2)c2c(N)ncnc21 [Compound T-9, 2-(6-(4-amino-1-isopropyl-1H-pyrazolo[3,4-d]pyrimidin-3-yl)pyridin-3-yl)-N-(3-(1,1,1-trifluoro-2-methylprop-2-yl)isoxazol-5-yl)acetamide] | 86.3 | 47.7 | 146.5 | 87.8 | 46.9 | 377.8 | 10.9 | 4120 |
| CC(C)c1cc(-c2ccc(CC(=O)Nc3cc(C(C)(C)C(F)(F)F)on3)cc2)c2c(N)ncnn12 [Compound T-5, 2-(4-(4-amino-7-isopropylpyrrolo[2,1-f][1,2,4]triazin-5-yl)phenyl)-N-(5-(1,1,1-trifluoro-2-methylprop-2-yl)isoxazol-3-yl)acetamide] | 351.7 | 13.6 | 419.6 | 133.6 | 35.8 | 1660.8 | 2.88 | 4780 |
| CC(C)n1nc(-c2ccc(NC(=O)Nc3cc(C(F)(F)F)ccc3F)cc2)c2c(N)ncnc21 [AD80, reference compound] | 103.0 | 7.88 | 68.8 | 21.82 | 30.1 | 370.7 | 2.19 | 812 |
